Measurements from patent US20150284375A1 (AJINOMOTO CO., INC., priority 2012, published 2015).
Where two headings read alike, the source gives them in different places.

Biological target: T1, human TRPA1 (Homo sapiens, UniProt O75762)
T1 construct: expressed in transfected cells; host or cells: Human embryonic kidney-derived 293T cells, transiently transfected with the pcDNA3.1/zeo(+) human TRPA1 plasmid
Assay: Measurement of TRPA1 antagonist activity (intracellular calcium increase, FLIPR, allylisothiocyanate stimulation)
Type: cell-based
Settings: read-out: antagonism hTRPA1
Outline: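 IC50 derives from a sigmoid fit of inhibition of the 5-min FLIPR fluorescence change evoked by 20 μM allylisothiocyanate, normalized between agonist and buffer responses. Test substance, diluted in HBSS/20 mM HEPES pH 7.2 plus 0.1% BSA, was applied 10 min beforehand at room temperature to Calcium4-loaded 293T cells transiently expressing human TRPA1.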

[1] = 293T cells transfected with human TRPA1, allylisothiocyanate 20 μM, concentration for 50% inhibitory rate
[2] = allylisothiocyanate 20 μM stimulation, FLIPR calcium assay

T1 sequence (O75762 whole entry): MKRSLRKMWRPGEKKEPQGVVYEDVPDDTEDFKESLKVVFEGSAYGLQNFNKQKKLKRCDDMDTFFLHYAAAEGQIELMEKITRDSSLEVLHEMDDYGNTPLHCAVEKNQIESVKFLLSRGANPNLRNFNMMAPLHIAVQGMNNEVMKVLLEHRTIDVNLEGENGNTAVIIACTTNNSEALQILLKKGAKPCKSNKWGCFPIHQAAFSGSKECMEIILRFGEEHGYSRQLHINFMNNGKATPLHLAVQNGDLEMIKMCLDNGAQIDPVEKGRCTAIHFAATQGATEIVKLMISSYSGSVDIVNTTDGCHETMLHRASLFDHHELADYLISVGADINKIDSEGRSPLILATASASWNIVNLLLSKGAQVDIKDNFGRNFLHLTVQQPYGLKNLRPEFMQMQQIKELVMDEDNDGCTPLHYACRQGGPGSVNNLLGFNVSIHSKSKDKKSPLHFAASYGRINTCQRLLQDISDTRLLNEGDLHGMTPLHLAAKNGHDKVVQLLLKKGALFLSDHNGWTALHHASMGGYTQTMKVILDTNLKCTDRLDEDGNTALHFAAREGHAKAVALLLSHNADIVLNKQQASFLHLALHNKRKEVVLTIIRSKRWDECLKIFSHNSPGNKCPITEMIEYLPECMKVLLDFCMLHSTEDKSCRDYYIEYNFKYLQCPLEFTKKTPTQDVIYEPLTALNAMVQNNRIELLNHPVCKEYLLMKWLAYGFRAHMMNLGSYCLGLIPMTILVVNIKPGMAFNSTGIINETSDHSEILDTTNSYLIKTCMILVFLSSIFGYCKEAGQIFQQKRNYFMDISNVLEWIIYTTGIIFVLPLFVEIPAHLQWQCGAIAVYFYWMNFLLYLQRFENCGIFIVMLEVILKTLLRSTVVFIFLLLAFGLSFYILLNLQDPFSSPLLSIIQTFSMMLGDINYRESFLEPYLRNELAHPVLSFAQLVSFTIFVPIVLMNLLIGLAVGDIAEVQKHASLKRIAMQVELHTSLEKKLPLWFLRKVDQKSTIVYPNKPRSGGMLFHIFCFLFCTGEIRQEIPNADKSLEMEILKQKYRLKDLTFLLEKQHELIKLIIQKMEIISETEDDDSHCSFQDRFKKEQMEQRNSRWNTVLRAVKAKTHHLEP

SMILES	IC50 [1] [nM]	IC50 [2] [nM]
O=C(NCc1ccc(Oc2ccc(F)c(Cl)c2)cc1)[C@@H]1CCCN1S(=O)(=O)c1ccc(Cl)s1 [Example 11, (2S)-N-{[4-(3-chloro-4-fluoro-phenoxy)phenyl]methyl}-1-(5-chlorothiophene-2-sulfonyl)pyrrolidine-2-carboxamide]	200	
O=C(NCc1cccc(COc2ccccc2)c1)[C@@H]1CCCN1S(=O)(=O)c1ccc(Cl)s1 [Example 70]	340	
CN(C)c1cccc(OCc2ccc(CNC(=O)[C@@H]3CCCN3S(=O)(=O)c3ccc(Cl)s3)cc2)c1 [Example 59, (2S)-1-(5-chlorothiophene-2-sulfonyl)-N-((4-{[3-(dimethyl-amino)phenoxy]methyl}phenyl)methyl)pyrrolidine-2-carboxamide]	838	
O=C(NCc1ccc(COc2cccc(OC(F)(F)F)c2)cc1)[C@@H]1CCCN1S(=O)(=O)c1ccc(Cl)s1 [Example 52, (2S)-1-(5-chlorothiophene-2-sulfonyl)-N-((4-{[3-(trifluoro-methoxy)phenoxy]methyl}phenyl)methyl)pyrrolidine-2-carboxamide]	210	
O=C(NCc1cccc(COc2ccc(C(F)(F)F)cc2)c1)[C@@H]1CCCN1S(=O)(=O)c1ccc(Cl)s1 [Example 71]	270	
O=C(NCc1ccc(COc2cncc(Cl)c2)cc1)[C@@H]1CCCN1S(=O)(=O)c1ccc(Cl)s1 [Example 67, (2S)-N-({4-[(5-chloro-3-pyridyl)oxymethyl]phenyl}methyl)-1-(5-chlorothiophene-2-sulfonyl)pyrrolidine-2-carboxamide]	730	
O=C(NCc1ccc(COc2c(F)cccc2F)cc1)[C@@H]1CCCN1S(=O)(=O)c1ccc(Cl)s1 [Example 65, (2S)-1-(5-chlorothiophene-2-sulfonyl)-N-({4-[(2,6-difluoro-phenoxy)methyl]phenyl}methyl)pyrrolidine-2-carboxamide]	130	
O=C(NCc1ccc(COc2ccccc2)cc1Cl)[C@@H]1CCCN1S(=O)(=O)c1ccc(Cl)s1 [Example 73]	150	
O=C(NCc1ccc(Oc2cccc(C(F)(F)F)c2)cc1)[C@@H]1CCCN1S(=O)(=O)c1ccc(F)cc1 [Example 30, (2S)-1-(4-fluorophenyl)sulfonyl-N-({4-[3-(trifluoro-methyl)phenoxy]phenyl}methyl)pyrrolidine-2-carboxamide]	230	
O=C(NCc1cccc(Oc2ccc(C(F)(F)F)cc2)c1)[C@@H]1CCN1S(=O)(=O)c1ccc(F)cc1 [Example 37, (2S)-1-(4-fluorophenyl)sulfonyl-N-({3-[4-(trifluoro-methyl)phenoxy]phenyl}methyl)azetidine-2-carboxamide]	160	
N#Cc1ccc(OCc2ccc(CNC(=O)[C@@H]3CCCN3S(=O)(=O)c3ccc(Cl)s3)cc2)cc1 [Example 49, (2S)-1-(5-chlorothiophene-2-sulfonyl)-N-({4-[(4-cyano-phenoxy)methyl]phenyl}methyl)pyrrolidine-2-carboxamide]	2100	
O=C(NCc1cccc(Oc2ccc(C(F)(F)F)cc2)c1)[C@@H]1CCCN1S(=O)(=O)c1ccc(F)cc1 [Example 33, (2S)-1-(4-fluorophenyl)sulfonyl-N-({3-[4-(trifluoro-methyl)phenoxy]phenyl}methyl)pyrrolidine-2-carboxamide]	56	

The next lines start with the values.

IC50 [1] [nM]	IC50 [2] [nM]	SMILES
	25	O=C(NCc1cccc(OCc2cccc(C(F)(F)F)c2)c1)[C@@H]1CCCN1S(=O)(=O)c1ccc(F)cc1 [Example 123, (2S)-1-(4-fluorophenyl)sulfonyl-N-[[3-[[3-(trifluoromethyl)phenyl]methoxy]phenyl]methyl]pyrrolidine-2-carboxamide]
160		O=C(NCc1ccc(COc2ccccc2)cc1C(F)(F)F)[C@@H]1CCCN1S(=O)(=O)c1ccc(Cl)s1 [Example 76]
	100	O=C(NCc1cccc(Oc2ccc(C(F)(F)F)cc2)c1)[C@@H]1CCCN1S(=O)(=O)c1ccco1 [Example 189, (2S)-1-(2-furylsulfonyl)-N-[[3-[4-(trifluoromethyl)phenoxy]phenyl]methyl]pyrrolidine-2-carboxamide]
	60	O=C(NCc1cccc(OCc2ccc(C(F)(F)F)cc2)c1)[C@@H]1CCCN1S(=O)(=O)c1cccs1 [Example 200, (2S)-1-(2-thienylsulfonyl)-N-[[3-[[4-(trifluoromethyl)phenyl]methoxy]phenyl]methyl]pyrrolidine-2-carboxamide]
	570	O=C(NCc1cccc(Oc2ccnc(C(F)(F)F)c2)c1)[C@@H]1CCCN1S(=O)(=O)c1ccc(F)cc1 [Example 114, (2S)-1-(4-fluorophenyl)sulfonyl-N-[[3-[[2-(trifluoromethyl)-4-pyridyl]oxy]phenyl]methyl]pyrrolidine-2-carboxamide]
	130	O=C(NCc1cccc(OCc2cccc(N3CCOCC3)c2)c1)[C@@H]1CCCN1S(=O)(=O)c1ccc(F)cc1 [Example 127, (2S)-1-(4-fluorophenyl)sulfonyl-N-[[3-[(3-morpholinophenyl)methoxy]phenyl]methyl]pyrrolidine-2-carboxamide]
1200		O=C(NCc1c(F)ccc(OCc2ccc(C(F)(F)F)cc2)c1Cl)[C@@H]1CCCN1S(=O)(=O)c1ccc(Cl)s1 [Example 106]
66		O=C(NCc1cccc(OCc2ccccc2)c1)[C@@H]1CCCN1S(=O)(=O)c1ccc(F)cc1 [Example 108]
130		O=C(NCc1ccc(F)c(OCc2ccc(C(F)(F)F)cc2)c1F)[C@@H]1CCCN1S(=O)(=O)c1ccc(Cl)s1 [Example 105]
	110	O=C(NCc1cccc(OCc2ccnc(C(F)(F)F)c2)c1)[C@@H]1CCCN1S(=O)(=O)c1ccco1 [Example 150, (2S)-1-(2-furylsulfonyl)-N-[[3-[[2-(trifluoromethyl)-4-pyridyl]methoxy]phenyl]methyl]pyrrolidine-2-carboxamide]
	100	O=C(NCc1cccc(Oc2ccc(C(F)(F)F)cc2)c1)[C@@H]1CCCN1S(=O)(=O)c1cc(F)cc(F)c1 [Example 188, (2S)-1-(3,5-difluorophenyl)sulfonyl-N-[[3-[4-(trifluoromethyl)phenoxy]phenyl]methyl]pyrrolidine-2-carboxamide]
	1200	O=C(NCc1cccc(OCc2ccc(C(F)(F)F)cc2)c1)[C@@H]1[C@@H]2C[C@@H]2CN1S(=O)(=O)c1ccc(F)cc1 [Example 172, (1S,4S,5R)-3-(4-fluorophenyl)sulfonyl-N-[[3-[[4-(trifluoromethyl)phenyl]methoxy]phenyl]methyl]-3-azabicyclo[3.1.0]hexane-4-carboxamide]
	940	O=C(NCc1cccc(OCc2ccc(C(F)(F)F)cc2)c1)[C@@H]1CCCN1S(=O)(=O)c1cncs1 [Example 217, (2S)-1-thiazol-5-ylsulfonyl-N-[[3-[[4-(trifluoromethyl)phenyl]methoxy]phenyl]methyl]pyrrolidine-2-carboxamide]
	27	O=C(NCc1cccc(OCc2ccc(C(F)(F)F)cc2)c1)[C@@H]1CCCN1S(=O)(=O)c1ccc(F)cc1 [Example 163, (2S)-1-(4-fluorophenyl)sulfonyl-N-[[3-[[4-(trifluoromethyl)phenyl]methoxy]phenyl]methyl]pyrrolidine-2-carboxamide]
19		O=C(NCc1cccc(OCc2ccc(C(F)(F)F)cc2)c1)[C@@H]1CCCN1S(=O)(=O)c1ccc(Cl)s1 [Example 96]
